“And” between values parts separate entries of the source, which are not always exact repeats. Equal entries are not always repeated.
Legend:
[1] = test system: Puccinia recondita f. Sp. Tritici; assay: Puccinia recondita f. sp. tritici / wheat / leaf disc curative (brown rust); type: in vivo; details: foliar, 24 h, 200 ppm in the applied formulation, wheat leaf segments cv. Kanzler, curative (applied 1 day after inoculation), compared to untreated control, read-out: disease control
Experimental: Leaf disks or leaf segments of various plant species are cut from plants grown in a greenhouse. The cut leaf disks or segments are placed in multiwell plates (24-well format) onto water agar. The leaf disks are sprayed with a test solution before (preventative) or after (curative) inoculation. Compounds to be tested are prepared as DMSO solutions (max. 10 mg/ml) which are diluted to the appropriate concentration with 0.025% Tween20 just before spraying. The inoculated leaf disks or segments are incubated under defined conditions (temperature, relative humidity, light, etc.) according to the respective test system. A single evaluation of disease level is carried out 3 to 14 days after inoculation, depending on the pathosystem. Percent disease control relative to the untreated check leaf disks or segments is then calculated. Wheat leaf segments cv. Kanzler are placed on agar in multiwell plates (24-well format). The leaf segments are then inoculated with a spore suspension of the fungus. Plates were stored in darkness at 19° C. and 75% relative humidity. The formulated test compound diluted in water was applied 1 day after inoculation. The leaf segments were incubated at 19° C. and 75% relative humidity under a light regime of 12 hours light/12 hours darkness in a climate cabinet and the activity of a compound was assessed as percent disease control compared to untreated when an appropriate level of disease damage appears in untreated check leaf segments (6 to 8 days after application).

[2] = test system: Puccinia recondita f. Sp. Tritici; assay: Puccinia recondita f. sp. tritici / wheat / leaf disc preventative (brown rust); type: in vivo; details: foliar, 200 ppm in the applied formulation, wheat leaf segments cv. Kanzler, preventative (inoculated 1 day after application), compared to untreated control, read-out: disease control
Experimental: Leaf disks or leaf segments of various plant species are cut from plants grown in a greenhouse. The cut leaf disks or segments are placed in multiwell plates (24-well format) onto water agar. The leaf disks are sprayed with a test solution before (preventative) or after (curative) inoculation. Compounds to be tested are prepared as DMSO solutions (max. 10 mg/ml) which are diluted to the appropriate concentration with 0.025% Tween20 just before spraying. The inoculated leaf disks or segments are incubated under defined conditions (temperature, relative humidity, light, etc.) according to the respective test system. A single evaluation of disease level is carried out 3 to 14 days after inoculation, depending on the pathosystem. Percent disease control relative to the untreated check leaf disks or segments is then calculated. Wheat leaf segments cv. Kanzler were placed on agar in multiwell plates (24-well format) and sprayed with the formulated test compound diluted in water. The leaf disks were inoculated with a spore suspension of the fungus 1 day after application. The inoculated leaf segments were incubated at 19° C. and 75% relative humidity (rh) under a light regime of 12 hours light/12 hours darkness in a climate cabinet and the activity of a compound was assessed as percent disease control compared to untreated when an appropriate level of disease damage appears in untreated check leaf segments (7 to 9 days after application).

[3] = test system: Glomerella laqenarium (Colletotrichum laqenarium); assay: Glomerella lagenarium liquid culture / cucumber / preventative (anthracnose); type: cell-based; details: 20 ppm in the applied formulation, liquid culture in PDB, growth inhibition measured photometrically 3 to 4 days after application, compared to untreated control, read-out: disease control
Experimental: Mycelia fragments or conidia suspensions of a fungus prepared either freshly from liquid cultures of the fungus or from cryogenic storage, are directly mixed into nutrient broth. DMSO solutions of the test compound (max. 10 mg/ml) are diluted with 0.025% Tween20 by a factor of 50 and 10 μl of this solution is pipetted into a microtiter plate (96-well format). The nutrient broth containing the fungal spores/mycelia fragments is then added to give an end concentration of the tested compound. The test plates are incubated in the dark at 24° C. and 96% relative humidity. The inhibition of fungal growth is determined photometrically after 2 to 7 days, depending on the pathosystem, and percent antifungal activity relative to the untreated check is calculated. Conidia of the fungus from cryogenic storage are directly mixed into nutrient broth (PDB—potato dextrose broth). After placing a (DMSO) solution of test compound into a microtiter plate (96-well format), the nutrient broth containing the fungal spores is added. The test plates are incubated at 24° C. and the inhibition of growth is measured photometrically 3 to 4 days after application.

Phakopsora pachyrhizi = Phakopsora pachyrhizi / soybean / leaf disc preventative (Asian soybean rust); type: in vivo; details: foliar, 200 ppm in the applied formulation, soybean leaf disks, preventative (inoculated 1 day after application), compared to untreated control, read-out: disease control
Experimental: Leaf disks or leaf segments of various plant species are cut from plants grown in a greenhouse. The cut leaf disks or segments are placed in multiwell plates (24-well format) onto water agar. The leaf disks are sprayed with a test solution before (preventative) or after (curative) inoculation. Compounds to be tested are prepared as DMSO solutions (max. 10 mg/ml) which are diluted to the appropriate concentration with 0.025% Tween20 just before spraying. The inoculated leaf disks or segments are incubated under defined conditions (temperature, relative humidity, light, etc.) according to the respective test system. A single evaluation of disease level is carried out 3 to 14 days after inoculation, depending on the pathosystem. Percent disease control relative to the untreated check leaf disks or segments is then calculated. Soybean leaf disks are placed on water agar in multiwell plates (24-well format) and sprayed with the formulated test compound diluted in water. One day after application leaf discs are inoculated by spraying a spore suspension on the lower leaf surface. After an incubation period in a climate cabinet of 24-36 hours in darkness at 20° C. and 75% rh leaf disc are kept at 20° C. with 12 h light/day and 75% rh. The activity of a compound is assessed as percent disease control compared to untreated when an appropriate level of disease damage appears in untreated check leaf disks (12 to 14 days after application).

| melting point | Compound | pest or weed control at 200 ppm [1] [%] | pest or weed control at 200 ppm [2] [%] | inhibition of growth at 20 ppm [3] [%] | pest or weed control at 200 ppm (Phakopsora pachyrhizi) [%] |
| --- | --- | --- | --- | --- | --- |
| 86.1 to 87.3 °C | CC(=O)n1ccc(OCc2ccc(-c3noc(C(F)(F)F)n3)cc2)n1 [Compound 1.18, 1-[3-[[4-[5-(trifluoromethyl)-1,2,4-oxadiazol-3-yl]phenyl]methoxy]pyrazol-1-yl]ethanone] | ≥ 80 | ≥ 80 | ≥ 80 | ≥ 80 |
| 84.9 to 87.8 °C | Cn1ccc(OCc2ccc(-c3noc(C(F)(F)F)n3)cc2)n1 [Compound 1.17, 3-[4-[(1-methylpyrazol-3-yl)oxymethyl]phenyl]-5-(trifluoromethyl)-1,2,4-oxadiazole] | ≥ 80 | ≥ 80 | ≥ 80 | ≥ 80 |
| 61.8 to 64.4 °C | FC(F)(F)c1nc(-c2ccc(COc3ccon3)cc2)no1 [Compound 1.4, 3-[4-(isoxazol-3-yloxymethyl)phenyl]-5-(trifluoromethyl)-1,2,4-oxadiazole] | ≥ 80 | ≥ 80 | ≥ 80 | ≥ 80 |
| 51 to 53 °C | C/C(=N/OCc1ccc(-c2noc(C(F)(F)F)n2)cc1)n1ccnc1 [Compound 4.2, (Z)-1-imidazol-1-yl-N-[[4-[5-(trifluoromethyl)-1,2,4-oxadiazol-3-yl]phenyl]methoxy]ethanimine] | ≥ 80 | ≥ 80 | ≥ 80 | ≥ 80 |
| 108 to 110 °C | Fc1ccccc1OCc1ccc(-c2noc(C(F)(F)F)n2)cc1 [Compound 1.11, 3-[4-[(2-fluorophenoxy)methyl]phenyl]-5-(trifluoromethyl)-1,2,4-oxadiazole] | ≥ 80 | ≥ 80 | ≥ 80 | ≥ 80 |
| – | Fc1cc(COC2=NOCC2)ccc1-c1noc(C(F)(F)F)n1 [Compound 1.13, 3-[4-(4,5-dihydroisoxazol-3-yloxymethyl)-2-fluoro-phenyl]-5-(trifluoromethyl)-1,2,4-oxadiazole] | ≥ 80 | ≥ 80 | ≥ 80 | ≥ 80 |
| 107.9 to 108.6 °C | CC1(C)CC(OCc2ccc(-c3noc(C(F)(F)F)n3)cc2)=NO1 [Compound 1.3, 3-[4-[(5,5-dimethyl-4H-isoxazol-3-yl)oxymethyl]phenyl]-5-(trifluoromethyl)-1,2,4-oxadiazole] | – | – | ≥ 80 | ≥ 80 |
| – | O=C(NC1CC1)OCc1ccc(-c2noc(C(F)(F)F)n2)cc1 [Compound 3.2, [4-[5-(trifluoromethyl)-1,2,4-oxadiazol-3-yl]phenyl]methyl N-cyclopropylcarbamate] | ≥ 80 | ≥ 80 | ≥ 80 | ≥ 80 |
| 104 to 106 °C | CC(Oc1nnnn1C)c1ccc(-c2noc(C(F)(F)F)n2)cc1 (stereo not drawn) [Compound 1.22, 3-[4-[1-(1-methyltetrazol-5-yl)oxyethyl]phenyl]-5-(trifluoromethyl)-1,2,4-oxadiazole] | ≥ 80 | ≥ 80 | ≥ 80 | ≥ 80 |
| 50.2 to 51.8 °C | CC1(C)CON=C1OCc1ccc(-c2noc(C(F)(F)F)n2)cc1 [Compound 1.1, 3-[4-[(4,4-dimethyl-5H-isoxazol-3-yl)oxymethyl]phenyl]-5-(trifluoromethyl)-1,2,4-oxadiazole] | ≥ 80 | ≥ 80 | ≥ 80 | ≥ 80 |
| 137.4 to 141.8 °C | Cc1cc(OCc2ccc(-c3noc(C(F)(F)F)n3)cc2)n[nH]1 [Compound 1.19, 3-[4-[(5-methyl-1H-pyrazol-3-yl)oxymethyl]phenyl]-5-(trifluoromethyl)-1,2,4-oxadiazole] | ≥ 80 | ≥ 80 | ≥ 80 | ≥ 80 |
| 84 to 86 °C | Fc1ccc(OCc2ccc(-c3noc(C(F)(F)F)n3)cc2)nc1 [Compound 1.16, 3-[4-[(5-fluoro-2-pyridyl)oxymethyl]phenyl]-5-(trifluoromethyl)-1,2,4-oxadiazole] | – | – | – | ≥ 80 |
| – | C/C(=N/OCc1ccc(-c2noc(C(F)(F)F)n2)cc1)N1CCOCC1 [Compound 4.3, (Z)-1-morpholino-N-[[4-[5-(trifluoromethyl)-1,2,4-oxadiazol-3-yl]phenyl]methoxy]ethanimine] | – | ≥ 80 | ≥ 80 | ≥ 80 |
| 81.2 to 82.6 °C | Cc1cc(OCc2ccc(-c3noc(C(F)(F)F)n3)cc2)no1 [Compound 1.5, 3-[4-[(5-methylisoxazol-3-yl)oxymethyl]phenyl]-5-(trifluoromethyl)-1,2,4-oxadiazole] | ≥ 80 | ≥ 80 | ≥ 80 | ≥ 80 |
| – | CON=COCc1ccc(-c2noc(C(F)(F)F)n2)cc1 [Compound 1.23, [4-[5-(trifluoromethyl)-1,2,4-oxadiazol-3-yl]phenyl]methyl N-methoxymethanimidate] | ≥ 80 | ≥ 80 | ≥ 80 | ≥ 80 |
| 97 to 101 °C and 97 to 100.9 °C | FC(F)(F)c1nc(-c2ccc(COC3=NOCC3)cc2)no1 [Compound 1.2, 3-[4-(4,5-dihydroisoxazol-3-yloxymethyl)phenyl]-5-(trifluoromethyl)-1,2,4-oxadiazole] | ≥ 80 | ≥ 80 | ≥ 80 | ≥ 80 |

| Compound | melting point | pest or weed control at 200 ppm [1] [%] | pest or weed control at 200 ppm [2] [%] | inhibition of growth at 20 ppm [3] [%] | pest or weed control at 200 ppm (Phakopsora pachyrhizi) [%] |
| --- | --- | --- | --- | --- | --- |
| CN(C)C(=O)OCc1ccc(-c2noc(C(F)(F)F)n2)cc1 [Compound 3.1, [4-[5-(trifluoromethyl)-1,2,4-oxadiazol-3-yl]phenyl]methyl N,N-dimethylcarbamate] | 95 to 97 °C | ≥ 80 | ≥ 80 | ≥ 80 | ≥ 80 |

Source: US20190345150A1, “MICROBIOCIDAL OXADIAZOLE DERIVATIVES” (SYNGENTA PARTICIPATIONS AG, priority 2016, published 2019)
